Measurements as given in patent US20230024108A1, “ADENOSINE A2A RECEPTOR ANTAGONISTS” (Teon Therapeutics, Inc., priority 2019, published 2023).
Blank lines part the entries; values can stand above or below the molecule they belong to.

Experiments:
[1] = target: T1, human A2A AdoR (Homo sapiens, UniProt P29274); test: Adenosine receptor binding assay, A2A ([3H]-CGS-21680); details: membranes of HEK-293 cells expressing human A2A AdoR; read-out: hA2A IC50
T1 construct: purchased PerkinElmer RBHA2AM400UA
T1 sequence (P29274 whole entry): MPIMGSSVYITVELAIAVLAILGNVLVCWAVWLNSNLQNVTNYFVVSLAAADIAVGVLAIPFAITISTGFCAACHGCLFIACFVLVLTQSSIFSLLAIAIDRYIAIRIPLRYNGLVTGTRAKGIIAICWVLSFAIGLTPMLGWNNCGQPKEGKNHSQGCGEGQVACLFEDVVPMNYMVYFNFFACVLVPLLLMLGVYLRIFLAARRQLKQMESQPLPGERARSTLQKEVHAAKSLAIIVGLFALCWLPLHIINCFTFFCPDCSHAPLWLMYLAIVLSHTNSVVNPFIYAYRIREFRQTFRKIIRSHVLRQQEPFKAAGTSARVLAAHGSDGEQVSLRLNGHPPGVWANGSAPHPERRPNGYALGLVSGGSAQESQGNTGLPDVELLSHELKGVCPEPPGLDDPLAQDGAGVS
Procedure: (§1) Membranes prepared from CHO-K1 cells stably expressing Human AiAdoR (ES-010-M400UA), HEK-293 cells stably expressing human A2A AdoR (RBHA2AM400UA), HEK-293 cells stably expressing human A2B AdoR (ES-013-M400UA) and CHO-K1 cells stably expressing Human A3 AdoR (ES-012-M400UA) were purchased from PerkinElmer (Waltham, Mass., USA) and stored at −80° C. until use. Binding assays are performed using the radioligands. The final concentrations are as follows: [3H]-DPCPX (PerkinElmer, NET974001MC) at 1 nM for A1AdoR; [^3H]-CGS-21680 (PerkinElmer, NET1021250UC) at 6 nM for A2AAdoR, [3H]-DPCPX (PerkinElmer, NET974001MC) at 8 nM for A2BAdoR; [^3H]-HEMADO (ARC, Cat: ART1456) at 1 nM for A3AdoR. Testing compounds are diluted with DMSO to make 8-point 4-fold serial dilution. Nonspecific binding (Low control: LC) and total binding (High control: HC) are determined in the presence or absence of saturated cold ligand. Specific binding is calculated by subtracting nonspecific binding from total binding. All assays are performed in a final volume of 200 μl containing 1 μl of the test compound in DMSO, 100 μl of membrane preparation, and 99 μl of the radioligand in assay buffer (A1AdoR: 25 mM HEPES pH 7.4, 5 mM MgCl2, 1 mM CaCl2), 100 mM NaCl; A2AAdoR: 50 mM Tris HCl pH 7.4, 10 mM MgCl2, 1 mM EDTA; A2BAdoR: 50 mM HEPES pH 7.0, 5 mM MgCl2, 1 mM EDTA; A3AdoR: 25 HEPES pH 7.4, 10 mM MgCl2, 1 mM CaCl2), 0.5% BSA). The incubation is performed at room temperature with shaking at 300 rpm for 1 hour for A1AdoR, A2BAdoR and A3AdoR and 2 hours for A2AAdoR. After the incubation, the assay mixture is filtered through 96 GF/C filter plates (Perkin Elmer #6005174) using Perkin Elmer Filtermate Harvester, and then washed four times with ice-cold washing buffer (A1AdoR: 25 mM HEPES pH 7.4, 5 mM MgCl2, 1 mM CaCl2), 100 mM NaCl; A2AAdoR: 50 mM Tris HCl pH 7.4, 154 mM NaCl; A2BAdoR: 50 mM HEPES pH 6.5, 5 mM MgCl2, 1 mM EDTA, 0.2% BSA; A3AdoR: 50 mM Tris HCl pH 7.4). The filters are dried for 1 hour at 50° C. and [^3H] trapped on filter counted for radioactivity in Perkin Elmer Microscint 20 cocktail (#6013329) using Perkin Elmer MicroBeta2 Reader. The results are expressed as a percent inhibition of the control radioligand specific binding calculated using the following equation: % Inhibition=(1−(Assay well-Average_LC)/(Average_HC−Average_LC))×100%. Data are analyzed and IC50 is calculated using GraphPad Prism 5 and the model “log(inhibitor) vs. response—Variable slope”. The binding affinity of the compounds is determined by using the Cheng and Prusoff equation Ki=IC50/(1+[radioligand]/Kd).

[2] = target: T2, A1AdoR (Homo sapiens, UniProt P30542); test: Adenosine receptor binding assay, A1 ([3H]-DPCPX); details: ratio A1 vs A2A binding
T2 construct: purchased PerkinElmer ES-010-M400UA
T2 sequence (P30542 1-326): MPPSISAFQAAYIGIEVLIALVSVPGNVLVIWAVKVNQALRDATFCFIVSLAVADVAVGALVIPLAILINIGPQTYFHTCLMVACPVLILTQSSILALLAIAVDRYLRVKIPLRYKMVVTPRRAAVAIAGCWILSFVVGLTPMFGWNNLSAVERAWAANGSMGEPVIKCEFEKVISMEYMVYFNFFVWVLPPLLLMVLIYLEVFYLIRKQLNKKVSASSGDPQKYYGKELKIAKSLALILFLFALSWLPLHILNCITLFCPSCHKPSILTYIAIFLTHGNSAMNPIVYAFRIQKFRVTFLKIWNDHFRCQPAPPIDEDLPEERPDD
Procedure: as §1

Structure (SMILES): Cc1noc2cc(F)c(N3CCN(CCn4c(C(N)=O)c(C)c5c4nc(N)n4nc(-c6ccccn6)nc54)CC3)cc12 [5-amino-7-(2-(4-(6-fluoro-3-methylbenzo[d]isoxazol-5-yl)piperazin-1-yl)ethyl)-9-methyl-2-(pyridin-2-yl)-7H-pyrrolo[3,2-e][1,2,4]triazolo[1,5-c]pyrimidine-8-carboxamide]
IC50 [1]: ≤ 20 nM
A1/A2A Selectivity [2]: a (greater than 1000)

Structure (SMILES): NC(=O)c1c(Cl)c2c(nc(N)n3nc(-c4ccccn4)nc23)n1CCN1CCN(c2ccncc2)CC1 [5-amino-9-chloro-2-(pyridin-2-yl)-7-(2-(4-(pyridin-4-yl)piperazin-1-yl)ethyl)-7H-pyrrolo[3,2-e][1,2,4]triazolo[1,5-c]pyrimidine-8-carboxamide]
IC50 [1]: ≤ 20 nM
A1/A2A Selectivity [2]: c (greater than 0 but less than or equal to 100)

Structure (SMILES): NC(=O)c1c(Cl)c2c(nc(N)n3nc(-c4ccccn4)nc23)n1CCN1CCN(c2ncccn2)CC1 [5-amino-9-chloro-2-(pyridin-2-yl)-7-(2-(4-(pyrimidin-2-yl)piperazin-1-yl)ethyl)-7H-pyrrolo[3,2-e][1,2,4]triazolo[1,5-c]pyrimidine-8-carboxamide]
IC50 [1]: ≤ 20 nM
A1/A2A Selectivity [2]: c (greater than 0 but less than or equal to 100)

Structure (SMILES): Nc1nc2c(c(Cl)c(C(=O)O)n2CCN2CCN(c3ncccn3)CC2)c2nc(-c3ccccn3)nn12 [5-amino-9-chloro-2-(pyridin-2-yl)-7-(2-(4-(pyrimidin-2-yl)piperazin-1-yl)ethyl)-7H-pyrrolo[3,2-e][1,2,4]triazolo[1,5-c]pyrimidine-8-carboxylic acid]
IC50 [1]: 20 to 100 nM
A1/A2A Selectivity [2]: c (greater than 0 but less than or equal to 100)

Structure (SMILES): Cc1cnc2c(c1)CN(CCn1c(C(N)=O)c(Cl)c3c1nc(N)n1nc(-c4ccccn4)nc31)CC2 [5-amino-9-chloro-7-(2-(3-methyl-7,8-dihydro-1,6-naphthyridin-6(5H)-yl)ethyl)-2-(pyridin-2-yl)-7H-pyrrolo[3,2-e][1,2,4]triazolo[1,5-c]pyrimidine-8-carboxamide]
IC50 [1]: ≤ 20 nM
A1/A2A Selectivity [2]: c (greater than 0 but less than or equal to 100)

Structure (SMILES): CC#Cc1nc2c3ncn(CCN4CCN(c5cc6c(C)noc6cc5F)CC4)c3nc(N)n2n1 [3-(2-(4-(6-fluoro-3-methylbenzo[d]isoxazol-5-yl)piperazin-1-yl)ethyl)-8-(prop-1-yn-1-yl)-3H-[1,2,4]triazolo[5,1-i]purin-5-amine]
IC50 [1]: ≤ 20 nM
A1/A2A Selectivity [2]: a (greater than 1000)

Structure (SMILES): Nc1nc2c(ncn2CCN2CCN(c3cc(-c4ncco4)ccc3F)CC2)c2nc(C#CC3CC3)nn12 [8-(cyclopropylethynyl)-3-(2-(4-(2-fluoro-5-(oxazol-2-yl)phenyl)piperazin-1-yl)ethyl)-3H-[1,2,4]triazolo[5,1-i]purin-5-amine]
IC50 [1]: ≤ 20 nM
A1/A2A Selectivity [2]: b (greater than 100 but less than or equal to 1000)

Structure (SMILES): Cc1cnc2c(c1)CN(CCn1nc(Cl)c3c1nc(N)n1nc(-c4ccccn4)nc31)CC2 [9-chloro-7-(2-(3-methyl-7,8-dihydro-1,6-naphthyridin-6(5H)-yl)ethyl)-2-(pyridin-2-yl)-7H-pyrazolo[4,3-e][1,2,4]triazolo[1,5-c]pyrimidin-5-amine]
IC50 [1]: ≤ 20 nM
A1/A2A Selectivity [2]: c (greater than 0 but less than or equal to 100)

Structure (SMILES): Nc1nc2c(ncn2CCN2CCN(c3cc(-n4cccn4)ccc3F)CC2)c2nc(-c3ccccn3)nn12 [3-(2-(4-(2-fluoro-5-(1H-pyrazol-1-yl)phenyl)piperazin-1-yl)ethyl)-8-(pyridin-2-yl)-3H-[1,2,4]triazolo[5,1-i]purin-5-amine]
IC50 [1]: ≤ 20 nM
A1/A2A Selectivity [2]: b (greater than 100 but less than or equal to 1000)

Structure (SMILES): Cc1c(C(N)=O)n(CCN2CCN(c3ncccn3)CC2)c2nc(N)n3nc(-c4ccccn4)nc3c12 [5-amino-9-methyl-2-(pyridin-2-yl)-7-(2-(4-(pyrimidin-2-yl)piperazin-1-yl)ethyl)-7H-pyrrolo[3,2-e][1,2,4]triazolo[1,5-c]pyrimidine-8-carboxamide]
IC50 [1]: ≤ 20 nM
A1/A2A Selectivity [2]: b (greater than 100 but less than or equal to 1000)

Now from value to molecule, other results behind:

IC50 [1]: ≤ 20 nM
Structure (SMILES): Cc1cc(N2CCN(CCn3c(C(N)=O)c(C)c4c3nc(N)n3nc(-c5ccccn5)nc43)CC2)c(F)cn1 [5-amino-7-(2-(4-(5-fluoro-2-methylpyridin-4-yl)piperazin-1-yl)ethyl)-9-methyl-2-(pyridin-2-yl)-7H-pyrrolo[3,2-e][1,2,4]triazolo[1,5-c]pyrimidine-8-carboxamide]
A1/A2A Selectivity [2]: c (greater than 0 but less than or equal to 100)

IC50 [1]: ≤ 20 nM
A1/A2A Selectivity [2]: a (greater than 1000)
Structure (SMILES): N#Cc1ccc(N2CCN(CCn3c(C(N)=O)c(Cl)c4c3nc(N)n3nc(-c5ccccn5)nc43)CC2)c(F)c1 [5-amino-9-chloro-7-(2-(4-(4-cyano-2-fluorophenyl)piperazin-1-yl)ethyl)-2-(pyridin-2-yl)-7H-pyrrolo[3,2-e][1,2,4]triazolo[1,5-c]pyrimidine-8-carboxamide]

IC50 [1]: ≤ 20 nM
A1/A2A Selectivity [2]: a (greater than 1000)
Structure (SMILES): COC(=O)c1c(Cl)c2c(nc(N)n3nc(-c4ccccn4)nc23)n1CCN1CCN(c2cc(-c3ncco3)ccc2F)CC1 [methyl 5-amino-9-chloro-7-(2-(4-(2-fluoro-5-(oxazol-2-yl)phenyl)piperazin-1-yl)ethyl)-2-(pyridin-2-yl)-7H-pyrrolo[3,2-e][1,2,4]triazolo[1,5-c]pyrimidine-8-carboxylate]

IC50 [1]: ≤ 20 nM
Structure (SMILES): Cc1c(C(N)=O)n(CCN2CCN(c3ccc(F)cc3F)CC2)c2nc(N)n3nc(-c4ccccn4)nc3c12 [5-amino-7-(2-(4-(2,4-difluorophenyl)piperazin-1-yl)ethyl)-9-methyl-2-(pyridin-2-yl)-7H-pyrrolo[3,2-e][1,2,4]triazolo[1,5-c]pyrimidine-8-carboxamide]
A1/A2A Selectivity [2]: b (greater than 100 but less than or equal to 1000)

IC50 [1]: ≤ 20 nM
A1/A2A Selectivity [2]: a (greater than 1000)
Structure (SMILES): Nc1nc2c(c(Cl)c(C(=O)NC3CC3)n2CCN2CCN(c3cc(-c4ncco4)ccc3F)CC2)c2nc(-c3ccccn3)nn12

IC50 [1]: ≤ 20 nM
A1/A2A Selectivity [2]: a (greater than 1000)
Structure (SMILES): Cc1cc(N2CCN(CCn3c(C(=O)O)c(Cl)c4c3nc(N)n3nc(-c5ccccn5)nc43)CC2)c(F)cn1 [5-amino-9-chloro-7-(2-(4-(5-fluoro-2-methylpyridin-4-yl)piperazin-1-yl)ethyl)-2-(pyridin-2-yl)-7H-pyrrolo[3,2-e][1,2,4]triazolo[1,5-c]pyrimidine-8-carboxylic acid]

IC50 [1]: ≤ 20 nM
A1/A2A Selectivity [2]: a (greater than 1000)
Structure (SMILES): COC(=O)c1c(C)c2c(nc(N)n3nc(-c4ccccn4)nc23)n1CCN1CCN(c2cc(C)ncc2F)CC1 [methyl 5-amino-7-(2-(4-(5-fluoro-2-methylpyridin-4-yl)piperazin-1-yl)ethyl)-9-methyl-2-(pyridin-2-yl)-7H-pyrrolo[3,2-e][1,2,4]triazolo[1,5-c]pyrimidine-8-carboxylate]

IC50 [1]: ≤ 20 nM
A1/A2A Selectivity [2]: a (greater than 1000)
Structure (SMILES): NC(=O)c1c(Cl)c2c(nc(N)n3nc(-c4ccccn4)nc23)n1CCN1CCN(c2cc(-c3ncco3)ccc2F)CC1 [5-amino-9-chloro-7-(2-(4-(2-fluoro-5-(oxazol-2-yl)phenyl)piperazin-1-yl)ethyl)-2-(pyridin-2-yl)-7H-pyrrolo[3,2-e][1,2,4]triazolo[1,5-c]pyrimidine-8-carboxamide]
